In patent publication US6503906B1 (priority 2002, dated 2003):
In brackets after ≈: the same amount, converted by molar mass.

Key:
[1] = tested on: anthrax; set-up: species or system human
[2] = tested on: anthrax; assay: microbe, parasite or virus in culture; assay type: cell-based; settings: Bacillus anthracis, read-out: MIC against anthrax, mid point adopted in the models
[3] = tested on: inhalational anthrax; settings: human, in vivo; cited from earlier work
[4] = tested on: Bacillus anthracis spores; settings: rhesus monkey, in vivo; cited from earlier work
[5] = tested on: most other infectious organisms; settings: in vivo; cited from earlier work
[6] = tested on: gram positive and negative bacteria; settings: human, in vivo; cited from earlier work

O=C(O)c1cn(C2CC2)c2cc(N3CCNCC3)c(F)cc2c1=O [ciprofloxacin]
drop of mortality rate [1]: 2 folds
reduction of mortality rate with optimized regimens compared to currently recommended regimens [1]: up to 2 folds
MIC [2]: 0.07 µg/mL (≈ 0.211 µM)
overall survival of the US patients [3]: 55%
survival rate of anthrax patients treated with the drug [3]: 50˜60%
protection from the disease [4]: adequately protected from the disease
survival rate of ciprofloxacin-treated animals [4]: 90%
effectiveness against most other infectious organisms [5]: over 80%
MIC range of the bacteria in the literature study [6]: 0.008 to 0.4 µg/mL
time to complete bacteria eradication [6]: more than 10 days
